In patent US20170050957A1, “4-AMINO-6-(HETEROCYCLIC)PICOLINATES AND 6-AMINO-2-(HETEROCYCLIC)PYRIMIDINE-4-CARBOXYLATES AND THEIR USE AS HERBICIDES” (Dow AgroSciences LLC, priority 2013, published 2017):
Where two headings read alike, the source gives them in different places.

What was measured:
[1] = system: Key Grass and Sedge Weeds as well as Grass Crops; assay: Post-emergent Test II herbicidal activity (Table 16); format: in vivo; details: post-emergence, 336 h, 14 d; for pest or weed control at 35 g/ha: 35 g ai/ha; for pest or weed control at 70 g/ha: 70 g ai/ha; for pest or weed control at 140 g/ha: 140 g ai/ha
Procedure, shortened: (§1)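 Herbicidal effect scored as percent visual injury, 14 d after post-emergent application. Spray solutions contained acetone, DMSO, isopropyl alcohol, crop oil concentrate and surfactant, applied at 187 L/ha to young plants (1-2 true leaves).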

[2] = system: Key Broadleaf Weed and Crop Species; assay: Post-emergent Test II herbicidal activity (Table 15); format: in vivo; details: post-emergence, 336 h, 14 d; for pest or weed control at 35 g/ha: 35 g ai/ha; for pest or weed control at 70 g/ha: 70 g ai/ha; for pest or weed control at 140 g/ha: 140 g ai/ha
Procedure, shortened: as §1

[3] = Cyperus esculentus, yellow nutsedge (Cyperus esculentus), read-out: Visual Growth Reduction (%) 14 Days After Application, CYPES
[4] = Echinochloa crus-galli, barnyardgrass (Echinochloa crus-galli), read-out: Visual Growth Reduction (%) 14 Days After Application, ECHCG
[5] = Oryza sativa, rice (Oryza sativa), read-out: Visual Growth Reduction (%) 14 Days After Application, ORYSA
[6] = Setaria faberi, giant foxtail (Setaria faberi), read-out: Visual Growth Reduction (%) 14 Days After Application, SETFA
[7] = Triticum aestivum, wheat, spring (Triticum aestivum), read-out: Visual Growth Reduction (%) 14 Days After Application, TRZAS
[8] = Zea mays, maize, corn (Zea mays), read-out: Visual Growth Reduction (%) 14 Days After Application, ZEAMX
[9] = Abutilon theophrasti, velvetleaf (Abutilon theophrasti), read-out: Visual Growth Reduction (%) 14 Days After Application, ABUTH
[10] = Amaranthus retroflexus, redroot pigweed (Amaranthus retroflexus), read-out: Visual Growth Reduction (%) 14 Days After Application, AMARE
[11] = Brassica napus, oilseed rape, canola (Brassica napus), read-out: Visual Growth Reduction (%) 14 Days After Application, BRSNN
[12] = Chenopodium album, lambsquarters (Chenopodium album), read-out: Visual Growth Reduction (%) 14 Days After Application, CHEAL
[13] = Euphorbia heterophylla, wild poinsettia (Euphorbia heterophylla), read-out: Visual Growth Reduction (%) 14 Days After Application, EPHHL
[14] = Helianthus annuus, sunflower (Helianthus annuus), read-out: Visual Growth Reduction (%) 14 Days After Application, HELAN

`COC(=O)c1nc(-c2ccc3ccoc3c2F)c(F)c(N)c1Cl` [Compound 2.09] showed a pest or weed control at 35 g/ha [1, 3] of 0 to 29%, a pest or weed control at 70 g/ha [1, 3] of 0 to 29% and a pest or weed control at 140 g/ha [1, 3] of 0 to 29%. For the same compound, the pest or weed control at 35 g/ha [1, 4] was 60 to 74%, the pest or weed control at 70 g/ha [1, 4] was 85 to 94% and the pest or weed control at 140 g/ha [1, 4] was 85 to 94%. For the same compound, the pest or weed control at 35 g/ha [1, 5] was 0 to 29%, the pest or weed control at 70 g/ha [1, 5] was 30 to 44% and the pest or weed control at 140 g/ha [1, 5] was 30 to 44%. For the same compound, the pest or weed control at 35 g/ha [1, 6] was 45 to 59%, the pest or weed control at 70 g/ha [1, 6] was 60 to 74% and the pest or weed control at 140 g/ha [1, 6] was 60 to 74%. It also gave a pest or weed control at 35 g/ha [1, 7] of 0 to 29%, a pest or weed control at 70 g/ha [1, 7] of 0 to 29% and a pest or weed control at 140 g/ha [1, 7] of 0 to 29%. It also gave a pest or weed control at 35 g/ha [1, 8] of 45 to 59%, a pest or weed control at 70 g/ha [1, 8] of 60 to 74% and a pest or weed control at 140 g/ha [1, 8] of 60 to 74%. For the same compound, the pest or weed control at 35 g/ha [2, 9] was 85 to 94%, the pest or weed control at 70 g/ha [2, 9] was 85 to 94% and the pest or weed control at 140 g/ha [2, 9] was 85 to 94%. The pest or weed control at 35 g/ha [2, 10] was 85 to 94%, the pest or weed control at 70 g/ha [2, 10] was 95 to 100% and the pest or weed control at 140 g/ha [2, 10] was 95 to 100%. The pest or weed control at 35 g/ha [2, 11] was 60 to 74%, the pest or weed control at 70 g/ha [2, 11] was 75 to 84% and the pest or weed control at 140 g/ha [2, 11] was 85 to 94%. For the same compound, the pest or weed control at 35 g/ha [2, 12] was 95 to 100%, the pest or weed control at 70 g/ha [2, 12] was 95 to 100% and the pest or weed control at 140 g/ha [2, 12] was 95 to 100%. For the same compound, the pest or weed control at 35 g/ha [2, 13] was 95 to 100%, the pest or weed control at 70 g/ha [2, 13] was 95 to 100% and the pest or weed control at 140 g/ha [2, 13] was 95 to 100%. For the same compound, the pest or weed control at 35 g/ha [2, 14] was 60 to 74%, the pest or weed control at 70 g/ha [2, 14] was 75 to 84% and the pest or weed control at 140 g/ha [2, 14] was 85 to 94%. It also gave a melting point of 151 °C.
